pIC50: −log10 of the molar value. Read-outs that look alike come from different tables or passages of the source.
What was measured:
[1] = target: T1, NMDA receptors (NR2B subunit containing) (Rattus norvegicus, UniProt P35439+Q00960); assay: Functional NMDA antagonist potency: intracellular calcium measurement in primary cultures of rat cortical neurons (fluorimeter plate reader); format: cell-based
T1 construct: endogenous in cells; host or cells: primary neocortical neurons from 17 day old Charles River rat embryos, 4-7 days in vitro
From the text: Assessing the Functional NMDA Antagonist Potency of Compounds in Primary Cultures of Rat Cortical Neurons Based on Measuring the Intracellular Calcium Concentration Using a Fluorimeter Plate Reader
It is known that during postnatal development the subunit composition of neuronal NMDA receptors is changing. […] According to data in the literature and to our own immunocytochemical examinations neuronal cells cultured for 4-7 days in vitro predominantly express the NR2B subunit, together with NR1 subunit. Therefore, functional test of NMDA antagonism in these cells reflects mainly an action on NR2B subunit containing receptors. Since NMDA receptors are known to be permeable to calcium ions upon excitation, the extent of NMDA receptor activation, and its inhibition by functional antagonists can be characterised by measuring the rise in the intracellular calcium concentration following agonist (NMDA) application onto the cells. Since there is very high sequence homology between rat and human NMDA receptors (99, 95, 97% for NR1, NR2A, and NR2B subunits, respectively), it is believed that there is little, if any, difference in their pharmacological sensitivity.
In: Protocols for Neural Cell Culture, eds: Fedoroff, S.; Richardson A., The Humana Press Inc., 13-38.] After isolation, the cells are plated onto standard 96-well microplates and the cultures are maintained in an atmosphere of 95% air-5% CO2 at 37° C. until testing.
The cultures are used for the intracellular calcium measurements after 4-7 days in vitro. […] Loading is stopped by washing twice with the solution used also during the measurement (140 mM NaCl, 5 mM KCl, 2 mM CaCl2, 5 mM HEPES [4-(2-hydroxyethyl)-1-piperazineethane-sulfonic acid], 5 mM HEPES-Na, 20 mM glucose, 10 μM glycine, pH=7.4). Then the test compound dissolved in the above solution (90 μl/well) is added. Intracellular calcium measurements are carried out with a plate reader fluorimeter. A rise is induced by application of 40 μM NMDA in Fluo-4-fluorescence that reflects the intracellular calcium concentration. Inhibitory potency of the test compound is assessed by measuring the reduction in the calcium elevation in the presence of different concentrations of the compound. After the measurement, a standard calibration procedure [Meth. Cell.
Inhibitory potency of a compound at a single concentration point is expressed as percent inhibition of the control NMDA response. Sigmoidal concentration-inhibition curves are fitted over the data and IC50 values are defined as the concentration that produces half of the maximal inhibition that could be achieved with the compound. Mean IC50 values are derived from at least three independent experiments.
(§1) wherein for NMDA IC50—IC50 is determined by the intracellular Ca^2+-concentartion assay on cortical neurons; and for Ro-binding IC50—IC50 is determined by the [^3H]-Ro 25,6981 binding assay on rat cerebral membranes.

NR2B subunit = target: T2, NR2B subunit (Rattus norvegicus, UniProt P35439+Q00960); assay: [3H]-Ro 25,6981 binding assay on rat cerebral membranes
T2 construct: from tissue; host or cells: forebrain membranes of male Wistar rats
Protocol: Determining Binding of Compounds to NR2B Subunit by [^3H]-Ro 25,6981 Binding Assay
Briefly, membranes are isolated from the forebrain of male Wistar rats. They are incubated in the presence and absence of test compound for 2 hours at room temperature. […] The applied radioligand (^3H-Ro-25,6981) concentration is 4 nM.
as §1

NMRI mice = assay: Mouse formalin test (second phase) for in vivo efficacy; conditions: p.o. 15 min before formalin, licking time 20 to 25 min after formalin, >20 = inhibition less than 50% at 20 mg/kg p.o.; for ED50: po
Protocol: Mouse Formalin Test for Measurement of In Vivo Efficacy
Injection of diluted formalin into the hind paw of rats or mouse is known to elicit a biphasic pain related behaviour measured as time spent by licking/biting of the injured paw. The second phase is generally defined as pain related events detected in the 15-60 min. time interval after formalin injection. It is known that NMDA receptors are involved in the second phase of response to formalin injection and this behavioural response is sensitive to blockade of NMDA receptors [Dickenson, A. and Besson J.-M. (Eds.): Chapter 1, pp. 6-7: Animal models of Analgesia; and Chapter 8, pp. 180-183: Mechanism of Central Hypersensitivity: Excitatory Amino Acid Mechanisms and Their Control—In Pharmacology of Pain. Springer-Verlag (Berlin) 1997.] Therefore, we performed the second phase of formalin test to characterise the efficacy of compounds in vivo. Inhibition of the second phase of response is considered to indicate an analgesic effect against chemically-induced persistent pain [Hunskaar, S., et al.: Formalin Test in Mice, a Useful Technique for Evaluating Mild Analgesics, Journal of Neuroscience Methods, 14 (1985) 69-76.] Male albino Charles River NMRI mice (20-25 g) were used. Prior to the experiment any solid food was withdrawn for 16 hours but the animals had free access to 20% glucose solution. The animals were allowed a 1 hour acclimatisation period spent in a glass cylinder (cc. 15 cm in diameter), then moved to an identical cylinder with a mirror placed behind to facilitate observation. The test substances were suspended in 5% tween-80 (10 ml per kg body weight). and administered orally by gavage 15 min before the formalin injection (20 μl of 1% formalin in 0.9% saline injected subcutaneously into the dorsal surface of the right hindpaw). The time spent by licking and biting of the injected paw was measured from 20 to 25 min. after the formalin injection.

[2] = rat cortical neurons 4-7 days in vitro, 40 μM NMDA, Fluo-4 intracellular Ca2+, read-out: NMDA IC50
[3] = rat forebrain membranes, 4 nM [3H]-Ro 25,6981, 2 hours at room temperature, read-out: Ro-binding IC50

T1 sequence (Q00960 27-1482, other chains not shown): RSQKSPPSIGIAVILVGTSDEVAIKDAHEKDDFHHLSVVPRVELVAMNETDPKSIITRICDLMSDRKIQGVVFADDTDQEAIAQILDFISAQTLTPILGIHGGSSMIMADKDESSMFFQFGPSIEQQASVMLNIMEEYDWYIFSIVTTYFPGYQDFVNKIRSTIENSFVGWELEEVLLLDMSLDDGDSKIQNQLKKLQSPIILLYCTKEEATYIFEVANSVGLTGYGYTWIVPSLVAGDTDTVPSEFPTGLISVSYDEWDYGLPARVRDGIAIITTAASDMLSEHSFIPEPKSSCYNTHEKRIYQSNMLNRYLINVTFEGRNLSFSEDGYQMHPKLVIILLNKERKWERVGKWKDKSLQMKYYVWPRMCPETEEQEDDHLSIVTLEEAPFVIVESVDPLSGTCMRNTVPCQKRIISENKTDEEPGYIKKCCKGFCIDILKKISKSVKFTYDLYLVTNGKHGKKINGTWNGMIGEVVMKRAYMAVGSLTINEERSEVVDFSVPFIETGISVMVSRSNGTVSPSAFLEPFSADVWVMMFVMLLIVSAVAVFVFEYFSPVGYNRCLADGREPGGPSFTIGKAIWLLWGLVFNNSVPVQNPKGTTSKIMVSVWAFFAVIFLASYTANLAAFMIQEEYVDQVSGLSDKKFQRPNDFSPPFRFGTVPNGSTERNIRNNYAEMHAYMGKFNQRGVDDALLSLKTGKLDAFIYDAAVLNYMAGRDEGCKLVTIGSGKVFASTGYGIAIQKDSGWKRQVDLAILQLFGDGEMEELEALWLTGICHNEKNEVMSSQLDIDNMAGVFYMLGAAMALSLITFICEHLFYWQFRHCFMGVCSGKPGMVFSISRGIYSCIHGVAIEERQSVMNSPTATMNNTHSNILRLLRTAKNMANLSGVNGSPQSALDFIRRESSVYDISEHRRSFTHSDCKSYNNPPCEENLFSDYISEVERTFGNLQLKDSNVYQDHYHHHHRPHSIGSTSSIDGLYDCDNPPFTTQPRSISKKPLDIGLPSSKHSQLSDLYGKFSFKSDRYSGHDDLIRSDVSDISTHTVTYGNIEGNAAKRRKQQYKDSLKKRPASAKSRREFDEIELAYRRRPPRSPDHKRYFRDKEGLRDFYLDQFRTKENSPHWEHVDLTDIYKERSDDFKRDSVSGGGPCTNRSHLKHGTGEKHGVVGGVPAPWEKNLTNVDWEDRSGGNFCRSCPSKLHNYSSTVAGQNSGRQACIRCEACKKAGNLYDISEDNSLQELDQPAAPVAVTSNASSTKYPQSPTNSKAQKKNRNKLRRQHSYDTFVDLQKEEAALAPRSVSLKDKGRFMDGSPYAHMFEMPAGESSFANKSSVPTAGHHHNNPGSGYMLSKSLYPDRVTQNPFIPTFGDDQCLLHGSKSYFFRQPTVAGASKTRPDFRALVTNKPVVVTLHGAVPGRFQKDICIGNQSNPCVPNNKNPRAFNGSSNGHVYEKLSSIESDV
T2 sequence (Q00960 27-1482, other chains not shown): as above

pIC50 [1, 2] | pIC50 (NR2B subunit; [3]) | SMILES | ED50 (NMRI mice) | other results
6.79 | 7.54 | O=C(CN1CCC(Cc2ccccc2)CC1)Nc1ccc2c(c1)CC(=O)N2 [Example 143, 2-(4-Benzyl-piperidin-1-yl)-N-(2-oxo-2,3-dihydro-1H-indol-5-yl)-acetamide] | – | –
– | – | O=C(CN1CCC(Cc2ccccc2)CC1)Nc1ccc(O)cc1 [Example 192, 2-(4-Benzyl-piperidin-1-yl)-N-(4-hydroxy-phenyl)-acetamide] | 17 mg/kg | –
– | 8.08 | Oc1ccc(OCCN2CCC(Cc3ccc(F)cc3)CC2)cc1 [Co-111103, 1-[2-(4-hydroxyphenoxy)ethyl]-4-(4-fluorobenzyl)piperidine, reference compound] | > 20 mg/kg | –
8.85 | 8.36 | O=C(Nc1ccc2[nH]c(=O)[nH]c2c1)C(=O)N1CCC(Cc2ccccc2)CC1 [Example 7, 2-(4-Benzyl-piperidin-1-yl)-2-oxo-N-(2-oxo-2,3-dihydro-1H-benzimidazol-5-yl)-acetamide] | – | –
8.62 | 8.26 | O=C(Nc1ccc2[nH]c(=O)oc2c1)C(=O)N1CCC(Cc2ccccc2)CC1 [Example 8, 2-(4-Benzyl-piperidin-1-yl)-2-oxo-N-(2-oxo-2,3-dihydro-benzoxazol-6-yl)-acetamide] | – | –
8.22 | 8.77 | O=C(CN1CCC(Cc2ccccc2)CC1)Nc1ccc2[nH]c(=O)oc2c1 [Example 146, 2-(4-Benzyl-piperidin-1-yl)-N-(2-oxo-2,3-dihydro-benzoxazol-6-yl)-acetamide] | – | –
5.33 | < 4.52 | O=C(Nc1ccc2oc(=O)[nH]c2c1)C(=O)N1CCC(Cc2ccc(F)cc2)CC1 [Example 4, 2-[4-(4-Fluoro-benzyl)-piperidin-1-yl]-2-oxo-N-(2-oxo-2,3-dihydro-benzoxazol-5-yl)-acetamide] | – | –
– | – | C[C@@H]([C@@H](O)c1ccc(O)cc1)N1CCC(O)(c2ccccc2)CC1 [CP 101,606, (1S,2S)-1-(4-hydroxyphenyl)-2-(4-hydroxy-4-phenylpiperidine-1-yl)-1-propanol, reference compound] | > 20 mg/kg | –
8.49 | 7.74 | O=C(Nc1ccc2[nH]c(=O)oc2c1)C(=O)N1CCC(Cc2ccc(F)cc2)CC1 [Example 3, 2-[4-(4-Fluoro-benzyl)-piperidin-1-yl]-2-oxo-N-(2-oxo-2,3-dihydro-benzoxazol-6-yl)-acetamide] | 6.9 mg/kg | –
6.27 | 6.01 | O=C(CNc1ccc2[nH]ncc2c1)N1CCC(Cc2ccc(F)cc2)CC1 [Example 199, 1-[4-(4-Fluoro-benzyl)-piperidin-1-yl]-2-(1H-indazol-5-yl-amino)-ethanone] | – | –
7.32 | 7.04 | O=C(CNc1ccc2[nH]c(=O)[nH]c2c1)N1CCC(Cc2ccc(F)cc2)CC1 [Example 197, 5-{2-[4-(4-Fluoro-benzyl)-piperidin-1-yl]-2-oxo-ethylamino}-1,3-dihydro-benzoimidazol-2-one] | – | –
– | – | C[C@@H](CN1CCC(Cc2ccccc2)CC1)[C@@H](O)c1ccc(O)cc1 [Ro 25.6981, R—(R*,S*)-1-(4-hydroxyphenyl)-2-methyl-3-[4-(phenylmethyl)piperidin-1-yl]-1-propanol, reference compound] | > 20 mg/kg | pIC50 (NR2B subunit): 8.23
6.95 | 6.67 | O=C1COc2cc(NC(=O)C(=O)N3CCC(Cc4ccccc4)CC3)ccc2N1 [Example 24, 2-(4-Benzyl-piperidin-1-yl)-2-oxo-N-(3-oxo-3,4-dihydro-2H-benzo [1,4]oxazin-7-yl)-acetamide] | – | –
7.64 | 8.48 | Cc1ccc(CC2(O)CCN(CCOc3ccc(O)cc3)CC2)cc1 [Co-101244, 1-[2-(4-hydroxyphenoxy)ethyl]-4-hydroxy-4-(4-methylbenzyl)piperidine, reference compound] | > 20 mg/kg | –
– | – | O=c1[nH]c2ccc([S+]([O-])CCN3CCC(Cc4ccc(F)cc4)CC3)cc2o1 (centres unmarked) [CI-1041, 6-{2-[4-(4-fluoro-benzyl)-piperidin-1-yl]-ethanesulfinyl}-3H-benzooxazol-2-one, reference compound] | 5.3 mg/kg | pIC50 [1]: 8.18; pIC50 (NR2B subunit): 8.40
5.88 | 6.92 | O=C(CN1CCC(Cc2ccccc2)CC1)Nc1ccc2[nH]ncc2c1 [Example 147, 2-(4-Benzyl-piperidin-1-yl)-N-(1H-indazol-5-yl)-acetamide] | – | –
– | – | CC(C(=O)Nc1ccc2[nH]c(=O)oc2c1)N1CCC(Cc2ccccc2)CC1 (centres unmarked) [Example 161, 2-(4-Benzyl-piperidin-1-yl)-N-(2-oxo-2,3-dihydro-1H-benzoxazol-6-yl)-propionamide] | 2.4 mg/kg | –
– | – | O=C(Nc1ccc2[nH]c(=O)oc2c1)C(=O)N1CCC(Oc2ccc(Cl)cc2)CC1 [Example 31, 2-[4-(4-Chloro-phenoxy)-piperidin-1-yl]-2-oxo-N-(2-oxo-2,3-dihydro-benzoxazol-6-yl)-acetamide] | 4.4 mg/kg | –
– | – | Cc1ccc(CC2CCN(C(=O)C(=O)Nc3ccc4c(c3)CC(=O)N4)CC2)cc1 [Example 101, 2-[4-[4-Methyl-benzyl)-piperidin-1-yl]-2-oxo-N-(2-oxo-2,3-dihydro-1H-indol-5-yl)-acetamide] | 0.48 mg/kg | –
6.00 | 6.21 | CS(=O)(=O)Nc1cccc(NC(=O)C(=O)N2CCC(Cc3ccccc3)CC2)c1 [Example 12, 2-(4-Benzyl-piperidin-1-yl)-N-(3-methanesulfonylamino-phenyl)-2-oxo-acetamide] | – | –
9.15 | 8.33 | O=C(Nc1ccc2[nH]c(=O)[nH]c2c1)C(=O)N1CCC(Cc2ccc(F)cc2)CC1 [Example 2, 2-[4-(4-Fluoro-benzyl)-piperidin-1-yl]-2-oxo-N-(2-oxo-2,3-dihydro-1H-benzimidazol-5-yl)-acetamide] | – | –
– | – | O=C1Cc2cc(NC(=O)C(=O)N3CCC(Cc4ccc(F)cc4)CC3)ccc2N1 [Example 1, 2-[4-(4-Fluoro-benzyl)-piperidin-1-yl]-2-oxo-N-(2-oxo-2,3-dihydro-1H-indol-5-yl)-acetamide] | 0.46 mg/kg | –

SMILES | pIC50 [1, 2] | pIC50 (NR2B subunit; [3]) | ED50 (NMRI mice) | other results
O=C(CCN1CCC(Cc2ccc(F)cc2)CC1)c1ccc2[nH]c(=O)oc2c1 [EMD 95885, reference compound] | 7.46 | 8.14 | – | ED50 (mg/kg p.o.) (NMRI mice): 5.9 mg/kg

Reference: US7435744B2, “Piperidine derivatives as NMDA receptor antagonists” (Gedeon Richter Vegyeszeti Gyar RT, priority 2001, dated 2008)
